# Experimental data reported in the supplement of paper PMC4862054.
# How the values were obtained:
# [1] = system: BT-549; test: normalised viability (% of control), CellTiter-Blue; higher = more viable cells (about 100 = DMSO control); settings: 10 nM; incubation time: 72 h
# Procedure: (§1)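 DSRT, CellTiter-Blue viability, 72 h incubation. Signal is normalised to DMSO and benzethonium chloride controls. Value is the normalised response at dose 3.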
# [2] = system: CAL-148; test: as above; settings: 1 nM; incubation time: 72 h
# Procedure: as §1
# [3] = system: MDA-MB-453; test: as above; settings: 1 nM; incubation time: 72 h
# Procedure: as §1
# [4] = system: MFM-223; test: as above; settings: 10 nM; incubation time: 72 h
# Procedure: as §1
# [5] = system: BT-474; test: normalised viability (% of control), CellTiter-Blue; higher = more viable cells (about 100 = DMSO control); settings: incubation time: 72 h
# How it was run: (§2)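 Each entry is normalised viability at a single listed concentration within a series. It comes from breast cancer cell lines incubated 72 h with compound in 384-well plates, then measured with CellTiter-Blue fluorescence at 560/590 nm. Every plate was normalised between vehicle (100) and a positive kill control (0).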
# [6] = system: BT-549; test: as above; settings: incubation time: 72 h
# How it was run: as §2
# [7] = system: CAL-120; test: as above; settings: incubation time: 72 h
# How it was run: as §2
# [8] = system: CAL-148; test: as above; settings: incubation time: 72 h
# How it was run: as §2
# [9] = system: CAL-51; test: as above; settings: incubation time: 72 h
# How it was run: as §2
# [10] = system: CAL-85-1; test: as above; settings: incubation time: 72 h
# How it was run: as §2
# [11] = system: DU-4475; test: as above; settings: incubation time: 72 h
# How it was run: as §2
# [12] = system: HCC1143; test: as above; settings: incubation time: 72 h
# How it was run: as §2
# [13] = system: HCC1599; test: as above; settings: incubation time: 72 h
# How it was run: as §2
# [14] = system: HCC1937; test: as above; settings: incubation time: 72 h
# How it was run: as §2
# [15] = system: HDQ-P1; test: as above; settings: incubation time: 72 h
# How it was run: as §2
# [16] = system: Hs578T; test: as above; settings: incubation time: 72 h
# How it was run: as §2
# [17] = system: MDA-MB-231; test: as above; settings: incubation time: 72 h
# How it was run: as §2
# [18] = system: MDA-MB-436; test: as above; settings: incubation time: 72 h
# How it was run: as §2
# [19] = system: MDA-MB-453; test: as above; settings: incubation time: 72 h
# How it was run: as §2
# [20] = system: MDA-MB-468; test: as above; settings: incubation time: 72 h
# How it was run: as §2
# [21] = system: MFM-223; test: as above; settings: incubation time: 72 h
# How it was run: as §2
# [22] = system: SK-BR-3; test: as above; settings: incubation time: 72 h
# How it was run: as §2
# [23] = system: CAL-120; test: drug sensitivity score (DSS), CellTox Green (DSS (AUC-based score)); higher = stronger drug effect (viability inhibition or cytotoxicity); extreme values may be limits of the assay; settings: incubation time: 72 h
# How it was run: (§3)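 For 72 h, breast cancer cell lines seeded at 20 µl suspension per well in 384-well plates were incubated with compound at 5 concentrations in 10-fold steps spanning a 10,000-fold range that differed by compound. The first reading was CellTox Green fluorescence at 485/520 nm, and the second was CellTiter-Glo luminescence after 10 min at room temperature. Both were normalised per plate to 0.1 % DMSO and a positive kill control, and the drug sensitivity score was obtained from the area under the fitted dose-response curve.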
# [24] = system: CAL-148; test: as above; settings: incubation time: 72 h
# How it was run: as §3
structure (smiles),measurement,setting,value
CCN(CCCOc1ccc2c(Nc3cc(CC(=O)Nc4cccc(F)c4)[nH]n3)ncnc2c1)CCOP(=O)(O)O [Barasertib],normalised viability,[1],96.8%
same,normalised viability,[2],102%
same,normalised viability,[3],108%
same,normalised viability,[4],93.4%
same,normalised viability,[5]; 1 nM,108%
same,normalised viability,[5]; 100 nM,95.1%
same,normalised viability,[5]; 1000 nM,92.1%
same,normalised viability,[6]; 1 nM,93.5%
same,normalised viability,[6]; 100 nM,69.1%
same,normalised viability,[6]; 1000 nM,69.8%
same,normalised viability,[7]; 1 nM,111%
same,normalised viability,[7]; 100 nM,61.9%
same,normalised viability,[7]; 1000 nM,51.7%
same,normalised viability,[8]; 0.3 nM,98.4%
same,normalised viability,[8]; 3 nM,105%
same,normalised viability,[8]; 10 nM,39.7%
same,normalised viability,[9]; 0.3 nM,106%
same,normalised viability,[9]; 3 nM,103%
same,normalised viability,[9]; 10 nM,83.6%
same,normalised viability,[10]; 0.3 nM,102%
same,normalised viability,[10]; 3 nM,89.8%
same,normalised viability,[10]; 10 nM,93.2%
same,normalised viability,[11]; 0.3 nM,112%
same,normalised viability,[11]; 3 nM,105%
same,normalised viability,[11]; 10 nM,91.6%
same,normalised viability,[12]; 1 nM,124%
same,normalised viability,[12]; 100 nM,78.4%
same,normalised viability,[12]; 1000 nM,85.9%
same,normalised viability,[13]; 1 nM,79.4%
same,normalised viability,[13]; 100 nM,81.6%
same,normalised viability,[13]; 1000 nM,94.2%
same,normalised viability,[14]; 1 nM,69%
same,normalised viability,[14]; 100 nM,44.3%
same,normalised viability,[14]; 1000 nM,52.8%
same,normalised viability,[15]; 0.3 nM,103%
same,normalised viability,[15]; 3 nM,106%
same,normalised viability,[15]; 10 nM,109%
same,normalised viability,[16]; 1 nM,106%
same,normalised viability,[16]; 100 nM,62.6%
same,normalised viability,[16]; 1000 nM,70.7%
same,normalised viability,[17]; 1 nM,110%
same,normalised viability,[17]; 100 nM,75.3%
same,normalised viability,[17]; 1000 nM,81.1%
same,normalised viability,[18]; 1 nM,126%
same,normalised viability,[18]; 100 nM,56.5%
same,normalised viability,[18]; 1000 nM,88.1%
same,normalised viability,[19]; 0.3 nM,104%
same,normalised viability,[19]; 3 nM,92.8%
same,normalised viability,[19]; 10 nM,65.6%
same,normalised viability,[20]; 1 nM,115%
same,normalised viability,[20]; 100 nM,34.4%
same,normalised viability,[20]; 1000 nM,26.5%
same,normalised viability,[21]; 1 nM,103%
same,normalised viability,[21]; 100 nM,95.7%
same,normalised viability,[21]; 1000 nM,85.8%
same,normalised viability,[22]; 1 nM,107%
same,normalised viability,[22]; 100 nM,82.7%
same,normalised viability,[22]; 1000 nM,91.9%
CC(=O)Nc1ccc(C(=O)Nc2ccccc2N)cc1 [CI-994],normalised viability,[1],96.9%
same,normalised viability,[2],98.1%
same,normalised viability,[3],113%
same,normalised viability,[4],97.5%
same,normalised viability,[5]; 1 nM,104%
same,normalised viability,[5]; 100 nM,117%
same,normalised viability,[5]; 1000 nM,97.4%
same,normalised viability,[6]; 1 nM,116%
same,normalised viability,[6]; 100 nM,97%
same,normalised viability,[6]; 1000 nM,112%
same,normalised viability,[7]; 1 nM,99.9%
same,normalised viability,[7]; 100 nM,106%
same,normalised viability,[7]; 1000 nM,88.9%
same,normalised viability,[8]; 0.3 nM,104%
same,normalised viability,[8]; 3 nM,93.9%
same,normalised viability,[8]; 10 nM,101%
same,normalised viability,[9]; 0.3 nM,94.6%
same,normalised viability,[9]; 3 nM,94.6%
same,normalised viability,[9]; 10 nM,96.7%
same,normalised viability,[10]; 0.3 nM,104%
same,normalised viability,[10]; 3 nM,104%
same,normalised viability,[10]; 10 nM,101%
same,normalised viability,[11]; 0.3 nM,86%
same,normalised viability,[11]; 3 nM,81%
same,normalised viability,[11]; 10 nM,107%
same,normalised viability,[12]; 1 nM,113%
same,normalised viability,[12]; 100 nM,118%
same,normalised viability,[12]; 1000 nM,101%
same,normalised viability,[13]; 1 nM,104%
same,normalised viability,[13]; 100 nM,99.8%
same,normalised viability,[13]; 1000 nM,84.8%
same,normalised viability,[14]; 1 nM,86.9%
same,normalised viability,[14]; 100 nM,101%
same,normalised viability,[14]; 1000 nM,89.9%
same,normalised viability,[15]; 0.3 nM,113%
same,normalised viability,[15]; 3 nM,125%
same,normalised viability,[15]; 10 nM,108%
same,normalised viability,[16]; 1 nM,119%
same,normalised viability,[16]; 100 nM,115%
same,normalised viability,[16]; 1000 nM,92.5%
same,normalised viability,[17]; 1 nM,104%
same,normalised viability,[17]; 100 nM,101%
same,normalised viability,[17]; 1000 nM,115%
same,normalised viability,[18]; 1 nM,98.7%
same,normalised viability,[18]; 100 nM,97.2%
same,normalised viability,[18]; 1000 nM,94.8%
same,normalised viability,[19]; 0.3 nM,100%
same,normalised viability,[19]; 3 nM,100%
same,normalised viability,[19]; 10 nM,105%
same,normalised viability,[20]; 1 nM,99.6%
same,normalised viability,[20]; 100 nM,115%
same,normalised viability,[20]; 1000 nM,100%
same,normalised viability,[21]; 1 nM,107%
same,normalised viability,[21]; 100 nM,109%
same,normalised viability,[21]; 1000 nM,102%
same,normalised viability,[22]; 1 nM,103%
same,normalised viability,[22]; 100 nM,97.8%
same,normalised viability,[22]; 1000 nM,99.4%
COc1cc2ncnc(Nc3ccc(F)c(Cl)c3)c2cc1NC(=O)/C=C/CN1CCCCC1 [Dacomitinib],drug sensitivity score,[23],0
same,drug sensitivity score,[24],0
N#CCNC(=O)c1ccc(-c2ccnc(Nc3ccc(N4CCOCC4)cc3)n2)cc1 [Momelotinib],drug sensitivity score,[23],0
same,drug sensitivity score,[24],0
CCCCCCCCCCCCCCCCCCOP(=O)([O-])OC1CC[N+](C)(C)CC1 [Perifosine],drug sensitivity score,[23],0
same,drug sensitivity score,[24],0
Cc1ccc(C(=O)Nc2ccc(CN3CCN(C)CC3)c(C(F)(F)F)c2)cc1C#Cc1cnc2cccnn12 [Ponatinib],normalised viability,[1],107%
same,normalised viability,[2],103%
same,normalised viability,[3],110%
same,normalised viability,[4],65.5%
same,normalised viability,[5]; 1 nM,102%
same,normalised viability,[5]; 100 nM,110%
same,normalised viability,[5]; 1000 nM,91.2%
same,normalised viability,[6]; 1 nM,107%
same,normalised viability,[6]; 100 nM,120%
same,normalised viability,[6]; 1000 nM,49.3%
same,normalised viability,[7]; 1 nM,95.3%
same,normalised viability,[7]; 100 nM,85.4%
same,normalised viability,[7]; 1000 nM,13.8%
same,normalised viability,[8]; 0.3 nM,96.8%
same,normalised viability,[8]; 3 nM,105%
same,normalised viability,[8]; 10 nM,110%
same,normalised viability,[9]; 0.3 nM,95.2%
same,normalised viability,[9]; 3 nM,97.7%
same,normalised viability,[9]; 10 nM,89.5%
same,normalised viability,[10]; 0.3 nM,92.5%
same,normalised viability,[10]; 3 nM,85.4%
same,normalised viability,[10]; 10 nM,101%
same,normalised viability,[11]; 0.3 nM,91.6%
same,normalised viability,[11]; 3 nM,91.7%
same,normalised viability,[11]; 10 nM,84.5%
same,normalised viability,[12]; 100 nM,113%
same,normalised viability,[12]; 1000 nM,98.8%
same,normalised viability,[13]; 1 nM,95.4%
same,normalised viability,[13]; 100 nM,95.4%
same,normalised viability,[13]; 1000 nM,64.9%
same,normalised viability,[14]; 1 nM,78.3%
same,normalised viability,[14]; 100 nM,115%
same,normalised viability,[15]; 0.3 nM,102%
same,normalised viability,[15]; 3 nM,126%
same,normalised viability,[15]; 10 nM,115%
same,normalised viability,[16]; 1 nM,105%
same,normalised viability,[16]; 100 nM,110%
same,normalised viability,[16]; 1000 nM,73.9%
same,normalised viability,[17]; 1 nM,98.8%
same,normalised viability,[17]; 100 nM,82.6%
same,normalised viability,[17]; 1000 nM,16.9%
same,normalised viability,[18]; 1 nM,106%
same,normalised viability,[18]; 100 nM,91.5%
same,normalised viability,[18]; 1000 nM,90.5%
same,normalised viability,[19]; 0.3 nM,102%
same,normalised viability,[19]; 3 nM,101%
same,normalised viability,[19]; 10 nM,87.3%
same,normalised viability,[20]; 1 nM,98.2%
same,normalised viability,[20]; 1000 nM,78.7%
same,normalised viability,[21]; 1 nM,100%
same,normalised viability,[21]; 1000 nM,35.7%
same,normalised viability,[22]; 1 nM,104%
same,normalised viability,[22]; 100 nM,103%
same,normalised viability,[22]; 1000 nM,71.3%
CS(=O)(=O)c1ccc(C2=C(c3ccccc3)C(=O)OC2)cc1 [Rofecoxib],drug sensitivity score,[23],0
same,drug sensitivity score,[24],0
O=C(CCCCCCC(=O)Nc1ccc([C@H]2O[C@@H](CSc3nc(-c4ccccc4)c(-c4ccccc4)o3)C[C@@H](c3ccc(CO)cc3)O2)cc1)NO [Tubacin],drug sensitivity score,[23],0
same,drug sensitivity score,[24],0
